Results: patent US9624161B2 (priority 2009, dated 2017)
Where “and” joins values, the source holds several entries; their conditions need not be identical. Equal values may be shown once.

Experiments:
[1] = tested on: rats; assay: Gastrointestinal effects after oral administration in rats; format: in vivo, rat
[2] = tested on: human males; assay: Multiple dose study in human males (100, 300, 600, 1000 mg; days 1-11); format: in vivo
[3] = Oral bioavailability in dogs; format: in vivo; conditions: dog, plasma, depending on the formulation and route of administration
Protocol: Formulations using polyethylene glycol 300 (PEG300) generally produced higher exposures than microemulsions prepared in Tween 80 diluted in deionized water. […] Importantly, in dogs the exposure in the male 30 mg/kg PEG300 oral dose group exceeded the exposure necessary to produce the maximal effect on prostate reduction in the rat model of LH suppression.

[4] = tested on: men with castration resistant prostate cancer (CRPC); assay: Study 3: Compound IV 2000 mg daily in men with castration resistant prostate cancer maintained on ADT; format: in vivo, human; conditions: for Percentage of treated patients already on ADT (ITT population) below the free T cutoff of 0.5 pg/ml: Study 3, CRPC
Protocol: Men with CRPC (n=9) received 2000 mg Compound IV daily. The primary endpoint of the study was the proportion of subjects with a greater than or equal to 50% reduction in prostate specific antigen (PSA) from Day 1. Secondary endpoints included serum free T and SHBG which together with PSA were assessed at days 1, 15, 30, 60 and 90. Serum concentrations of total T, free T, SHBG and PSA were determined at baseline and during treatment.
A study (Study 3) was conducted to assess the effects of Compound IV on serum PSA progression in men with castration resistant prostate cancer who have been effectively treated with ADT and at the time of enrollment into this study have shown serum PSA progression. This study consisted of one dose arm with 9 subjects.
The subjects were 12 male subjects over age 18 years with castration resistant prostate cancer, who were being treated with androgen deprivation therapy (chemical or surgical castration) for at least 6 months, that have serum PSA >2 ng/mL or […] a 25% increase above the nadir after the initiation of androgen deprivation therapy (ADT) at study enrollment. The subjects were maintained on androgen deprivation therapy throughout the study.
The dose selected for the study was 2000 mg Compound IV. Four Compound IV tablets, 500 mg (2000 mg dose) were orally administered daily. […] Subjects received 2000 mg of Compound IV daily by mouth until study termination. Dosing was to be continued until their serum PSA had increased at least 25% and 2 ng/mL from the nadir at two successive sample times (approximately 30 days apart) after initiation of treatment with Compound IV. The prostate cancer working group (PCWG) definition of PSA progression was used (serum PSA has increased at least 25% and 2 ng/mL above the nadir after initiation of treatment with Compound IV on two successive sample times).
Assessments of serum PSA concentration were made at baseline and on Days 15, 30, and 60 (only 1 patient made it this far before study was terminated).
The proportion of subjects with a 50% decline from baseline in serum PSA (confirmed by a second PSA assessment at least one week later).

O=C(c1ccc(O)c(F)c1)N(c1ccc(O)cc1)c1ccc(F)cc1 [Compound IV, 3-fluoro-N-(4-fluorophenyl)-4-hydroxy-N-(4-hydroxyphenyl)benzamide]
Gastrointestinal motility and gastric acidity ([1]; oral 30 mg/kg in rats): significant increase | Peristalsis ([1]; oral 30 to 300 mg/kg in rats): significant increase | Change of PSA level ([2]; 10 mg): No changes noted | Change of PSA level ([2]; 30 mg): No changes noted | Decrease of PSA level ([2]; 100 mg): 9.2% | Decrease of free testosterone level ([2]; 100 mg): 17.0% | bioavailability [3]: 3 to 12% | Free T reductions and PSA decreases from baseline ([4]; 15 days, men maintained on ADT with LHRH agonists alone): in all of the men | Effect on serum total T levels ([4]; CRPC patients on ADT): did not further reduce | Reduction in % FreeT ([4]; Day 15): greater than 50% | Percentage of treated patients already on ADT (ITT population) below the free T cutoff of 0.5 pg/ml ([4]; 15 days on therapy): 85.7% | Percentage of treated patients already on ADT (ITT population) below the free T cutoff of 0.5 pg/ml ([4]; 30 days on therapy): 66.7% | Percentage of treated patients already on ADT (ITT population) below the free T cutoff of 0.5 pg/ml ([4]; 60 days on therapy): 100% | Patients with greater than 50% reduction in PSA ([4]; after two weeks): 3 of 7 | Men that reached free T below 0.5 pg/mL ([4]; day 15): 85.7% | Men that reached free T below 0.5 pg/mL ([4]; day 30): 66.7% | Men that reached free T below 0.5 pg/mL ([4]; day 60): 100% | Subjects with a reduction in serum PSA from baseline to Day 15 ([4]; seven evaluable subjects): All seven | Subjects with >50% reduction in serum PSA ([4]; subjects with at least 30 days of exposure): all three and 2 of 3
